Data on 14 molecules can be found in patent US6583133B1, “Propenyl cephalosporin derivatives and process for the manufacture thereof” (Basilea Pharmaceutica AG, priority 1998, dated 2003).

Broadly, the MIC is the lowest concentration found to suppress growth.

In brackets after ≈: the same amount, converted by molar mass. Read-outs that look alike come from different tables or passages of the source.

One assay relates to S. pneumoniae 907. The assay can be described thus: MIC, agar dilution method in Mueller Hinton agar. It counts as cell-based. The note with it: inoculum 10^4 CFU/spot. As for the experimental part:
(§1) Representative compounds of the present invention were tested. In vitro activity was determined by minimum inhibitory concentration in a microorganism spectrum by the agar dilution method in Mueller Hinton agar, inoculum=10^4 CFU/spot.

A further assay relates to E. faecalis 6. The assay can be described thus: MIC, agar dilution method in Mueller Hinton agar. It counts as cell-based. The conditions noted are these: inoculum 10^4 CFU/spot. As for the experimental part:
as §1

The next assay deals with S. aureus 6538 (MSSA). The assay can be described thus: MIC, agar dilution method in Mueller Hinton agar. The assay is classed as cell-based. The note with it: inoculum 10^4 CFU/spot. As for the experimental part: as §1
For orientation: Agar dilution tests growth on a series of plates holding different concentrations.

Another assay relates to S. aureus 270A (MRSA). The assay can be described thus: MIC, agar dilution method in Mueller Hinton agar. It counts as cell-based. The note with it: inoculum 10^4 CFU/spot. The procedure: as §1
A further assay deals with S. aureus 42080 (MRSA). The experiment in a line: MIC against MRSA alone or in combination with imipenem or compound X, agar dilution. The note with it: inoculum 10^5 CFU/spot; for MIC: Staphylococcus aureus, MRSA. The assay is classed as cell-based, Staphylococcus aureus. An excerpt:
(§2) For example, the combination with carbapenem antibiotics such as imipenem, or with β-lactamase-inhibitors such as (Z)-(2S,3S,5R)-3-(2-cyanoethenyl)-3-methyl-4,4,7-trioxo-4-thia-1-aza-bicyclo[3.2.0]heptane-2-carboxylic acid (below named “compound X”), enhances the antibacterial activity of compounds I against highly resistant strains of Graem-positive bacterias, e.g. methicillin-resistant strains of Staphylococcus aureus.

The subject of the next assay is S. aureus SPO-19 (MRSA). The assay is described as above. The assay is classed as cell-based, Staphylococcus aureus. The conditions noted are these: inoculum 10^5 CFU/spot; for MIC: Staphylococcus aureus, MRSA.
Text: as §2

Setting [1] is: Streptococcus pneumoniae, read-out: MIC.
The mark [2] stands for this setting: Enterococcus faecalis, read-out: MIC.
Setting [3] is: Staphylococcus aureus, read-out: MIC.
Setting [4] is: in combination with Compound X (μg/ml, concentration not given).
The mark [5] stands for this setting: in combination with Imipenem (4 μg/ml).

With `O=C(CSc1nc2ccccc2s1)N[C@@H]1C(=O)N2C(C(=O)[O-])=C(/C=C/C[n+]3ccccc3)CS[C@H]12` [Example 2, (E)-(6R,7R)-7-[2-(benzothiazol-2-ylsulfanyl)-acetylamino]-8-oxo-3-(3-pyridin-1-ium-1-yl-propenyl)-5-thia-1-aza-bicyclo[4.2.0]oct-2-ene-2-carboxylate], the MIC was below 0.1 µg/mL in the assay with S. pneumoniae 907 (setting [1]), 2 µg/mL (≈ 3.81 µM) with E. faecalis 6 (setting [2]), below 0.1 µg/mL with S. aureus 6538 (MSSA) (setting [3]) and 2 µg/mL (≈ 3.81 µM) with S. aureus 270A (MRSA) (setting [3]).
For the molecule `Cc1cccc[n+]1C/C=C/C1=C(C(=O)[O-])N2C(=O)[C@@H](NC(=O)CSc3ccc4ccccc4c3)[C@H]2SC1` [Example 7, (E)-(6R,7R)-3-[3-(2-Methyl-pyridin-1-ium-1-yl)-propenyl]-7-[2-(naphthalen-2-ylsulfanyl)-acetylamino]-8-oxo-5-thia-1-aza-bicyclo[4.2.0]oct-2-ene-2-carboxylate], the minimum inhibitory concentration (MIC) with S. pneumoniae 907 (setting [1]) is below 0.1 µg/mL; in the assay on E. faecalis 6 (setting [2]), 1 µg/mL (≈ 1.88 µM); with S. aureus 6538 (MSSA) (setting [3]), below 0.1 µg/mL; in the assay on S. aureus 270A (MRSA) (setting [3]), 2 µg/mL (≈ 3.76 µM).
`O=C(CSc1ccc2ccccc2c1)N[C@@H]1C(=O)N2C(C(=O)[O-])=C(/C=C/C[n+]3cccc(O)c3)CS[C@H]12` [Example 9, (E)-(6R,7R)-3-[3-(3-Hydroxy-pyridin-1-ium-1-yl)-propenyl]-7-[2-(naphtalen-2-ylsulfanyl)-acetylamino]-8-oxo-5-thia-1-aza-bicyclo[4.2.0]oct-2-ene-2-carboxylate]: the MIC with S. pneumoniae 907 is below 0.1 µg/mL; in the assay on E. faecalis 6, 0.5 µg/mL (≈ 0.937 µM); against S. aureus 6538 (MSSA), below 0.1 µg/mL; with S. aureus 270A (MRSA), 2 µg/mL (≈ 3.75 µM).
For `O=C(CSc1ccc2ccccc2c1)N[C@@H]1C(=O)N2C(C(=O)[O-])=C(/C=C/C[n+]3cccc4ccccc43)CS[C@H]12` [Example 13, (E)-(6R,7R)-7-[2-(Naphthalen-2-ylsulfanyl)-acetylamino]-8-oxo-3-(3-quinolin-1-ium-1-yl-propenyl)-5-thia-1-aza-bicyclo[4.2.0]oct-2-ene-2-carboxylate], the MIC in the assay on S. pneumoniae 907 (setting [1]) was below 0.1 µg/mL; in the assay with E. faecalis 6 (setting [2]) it was 0.25 µg/mL (≈ 0.44 µM); in the assay on S. aureus 6538 (MSSA) (setting [3]), below 0.1 µg/mL; with S. aureus 270A (MRSA) (setting [3]), 1 µg/mL (≈ 1.76 µM).
Consider `C[N+]1(C/C=C/C2=C(C(=O)[O-])N3C(=O)[C@@H](NC(=O)CSc4ccc5ccccc5c4)[C@H]3SC2)CCCC1` [Example 15], for which the MIC is below 0.1 µg/mL in the assay with S. pneumoniae 907, 0.5 µg/mL (≈ 0.955 µM) in the assay on E. faecalis 6, below 0.1 µg/mL with S. aureus 6538 (MSSA) and 2 µg/mL (≈ 3.82 µM) with S. aureus 270A (MRSA).
Regarding `C[N+](C)(C/C=C/C1=C(C(=O)[O-])N2C(=O)[C@@H](NC(=O)CSc3ccc4ccccc4c3)[C@H]2SC1)CC(N)=O` [Example 19, (E)-(6R,7R)-3-[3-(Carbamoylmethyl-dimethyl-ammonio)-propenyl]-7-[2-(naphtalen-2-ylsulfanyl)-acetylamino]-8-oxo-5-thia-1-aza-bicyclo[4.2.0]oct-2-ene-2-carboxylate], the minimum inhibitory concentration (MIC) is below 0.1 µg/mL with S. pneumoniae 907, 0.5 µg/mL (≈ 0.925 µM) in the assay with E. faecalis 6, below 0.1 µg/mL in the assay with S. aureus 6538 (MSSA) and 1 µg/mL (≈ 1.85 µM) in the assay on S. aureus 270A (MRSA).
`O=C(CSc1ccc2ccccc2c1)N[C@@H]1C(=O)N2C(C(=O)[O-])=C(/C=C/C[n+]3ccccc3)CS[C@H]12` [Example 22, (E)-(6R,7R)-7-[2-(naphthalen-2-ylsulfanyl)-acetylamino]-8-oxo-3-(3-pyridin-1-ium-1-yl-propenyl)-5-thia-1-aza-bicyclo[4.2.0]oct-2-ene-2-carboxylate]: the MIC was 4 µg/mL with S. aureus 42080 (MRSA) (compound alone); 4 µg/mL in the assay with S. aureus SPO-19 (MRSA) (compound alone); below 0.1 µg/mL with S. pneumoniae 907 (setting [1]); 0.5 µg/mL (≈ 0.966 µM) with E. faecalis 6 (setting [2]); below 0.1 µg/mL in the assay on S. aureus 6538 (MSSA) (setting [3]); 1 µg/mL (≈ 1.93 µM) with S. aureus 270A (MRSA) (setting [3]). The “MIC against MRSA” value in the assay with S. aureus 42080 (MRSA) (setting [4]) is 1 µg/mL; in the assay on S. aureus 42080 (MRSA) (setting [5]) it was 1 µg/mL; in the assay on S. aureus SPO-19 (MRSA) (setting [4]) it was 0.5 µg/mL; with S. aureus SPO-19 (MRSA) (setting [5]) it was 1 µg/mL.
For `C[N+](C)(C/C=C/C1=C(C(=O)[O-])N2C(=O)[C@@H](NC(=O)CSc3nc4ccccc4s3)[C@H]2SC1)CCO` [Example 41, (E)-(6R,7R)-3-[3-[Dimethyl-(2-hydroxy-ethyl)-ammonio]-propenyl]-7-[2-(benzothiazol-2-ylsulfanyl)-acetylamino]-8-oxo-5-thias1-aza-bicyclo[4.2.0]oct-2-ene-2-carboxylate], the minimal inhibitory concentration (MIC) with S. pneumoniae 907 was below 0.1 µg/mL; against E. faecalis 6, 1 µg/mL (≈ 1.87 µM); with S. aureus 6538 (MSSA), below 0.1 µg/mL; in the assay on S. aureus 270A (MRSA), 4 µg/mL (≈ 7.48 µM).
Consider `O=C(CSc1ccc2ccccc2c1)N[C@@H]1C(=O)N2C(C(=O)[O-])=C(/C=C/C[N+]34CCN(CC3)CC4)CS[C@H]12` [Example 59, (E)-(6R,7R)-3-[3-(4-Aza-1-azonia-bicyclo[2,2,2]octan-1-yl)-propenyl]-7-[2-(naphthalen-2-ylsulfanyl)-acetylamino]-8-oxo-5-thia-1-aza-bicyclo[4.2.0]oct-2-ene-2-carboxylate], for which the minimum inhibitory concentration (MIC) with S. aureus 42080 (MRSA) (compound alone) is 4 µg/mL; in the assay with S. aureus SPO-19 (MRSA) (compound alone) it was 4 µg/mL; in the assay with S. pneumoniae 907 (setting [1]) it was below 0.1 µg/mL; with E. faecalis 6 (setting [2]), 2 µg/mL (≈ 3.63 µM); in the assay on S. aureus 6538 (MSSA) (setting [3]) it was below 0.1 µg/mL; with S. aureus 270A (MRSA) (setting [3]), 2 µg/mL (≈ 3.63 µM). Also, the “MIC against MRSA” value in the assay with S. aureus 42080 (MRSA) (setting [5]) came to 2 µg/mL; with S. aureus SPO-19 (MRSA) (setting [5]), 1 µg/mL.
With `C[N+](C)(C/C=C/C1=C(C(=O)[O-])N2C(=O)[C@@H](NC(=O)CSc3ccc4ccccc4c3)[C@H]2SC1)CCCO` [Example 62, (E)-(6R,7R)-3-[3-[(3-Hydroxy-propyl)-dimethyl-ammonio]-propenyl]-7-[2-(naphthalen-2-ylsulfanyl)-acetylamino]-8-oxo-5-thia-1-aza-bicyclo[4.2.0]oct-2-ene-2-carboxylate], the MIC is 4 µg/mL in the assay with S. aureus 42080 (MRSA) (compound alone); 2 µg/mL with S. aureus SPO-19 (MRSA) (compound alone); below 0.1 µg/mL in the assay with S. pneumoniae 907 (setting [1]); 1 µg/mL (≈ 1.85 µM) in the assay on E. faecalis 6 (setting [2]); below 0.1 µg/mL in the assay with S. aureus 6538 (MSSA) (setting [3]); 2 µg/mL (≈ 3.69 µM) with S. aureus 270A (MRSA) (setting [3]). Moreover, the results for the “MIC against MRSA” value in the assay on S. aureus 42080 (MRSA) (setting [5]) and in the assay on S. aureus SPO-19 (MRSA) (setting [5]) were 2 µg/mL and 1 µg/mL, respectively.
For `C[N+](C)(C/C=C/C1=C(C(=O)[O-])N2C(=O)[C@@H](NC(=O)CSc3nc4ccccc4s3)[C@H]2SC1)C(CO)CO` [Example 67, (E)-(6R,7R)-7-[2-(Benzothiazol-2-ylsulfanyl)-acetylamino]-8-oxo-3-[3-[(2-hydroxy-1-hydroxymethyl-ethyl)-dimethyl-ammonio]-propenyl]-5-thia-1-aza-bicyclo[4.2.0]oct-2-ene-2-carboxylate], the MIC with S. pneumoniae 907 (setting [1]) was below 0.1 µg/mL; with E. faecalis 6 (setting [2]) it was 1 µg/mL (≈ 1.77 µM); in the assay with S. aureus 6538 (MSSA) (setting [3]) it was below 0.1 µg/mL; in the assay on S. aureus 270A (MRSA) (setting [3]), 2 µg/mL (≈ 3.54 µM).
Turning to `C[N+](C)(C/C=C/C1=C(C(=O)[O-])N2C(=O)[C@@H](NC(=O)CSc3ccc4cc(C(=O)O)ccc4c3)[C@H]2SC1)CC(N)=O` [Example 99], the minimum inhibitory concentration (MIC) was below 0.1 µg/mL in the assay with S. pneumoniae 907, 4 µg/mL (≈ 6.84 µM) with E. faecalis 6, below 0.1 µg/mL against S. aureus 6538 (MSSA) and 2 µg/mL (≈ 3.42 µM) in the assay on S. aureus 270A (MRSA).
Consider `C[C@@H](O)[C@H]1C(=O)N2C(C(=O)O)=C(SCCN=CN)C[C@H]12` [Imipenem, imipenem, reference compound], for which the minimal inhibitory concentration (MIC) in the assay with S. aureus 42080 (MRSA) (compound alone) and with S. aureus SPO-19 (MRSA) (compound alone) was above 16 µg/mL each time.
As to “(E)-(6R,7R)-8-Oxo-3-(3-pyridin-1-ium-1-yl-propenyl)-7-[2-(2,4,5-trichlorophenylsulfanyl)-acetylamino]-5-thia-1-aza-bicyclo[4.2.0]oct-2-ene-2-carboxylate [Example 6]”, the “MIC against MRSA” value is 8 µg/mL with S. aureus 42080 (MRSA) (compound alone), 1 µg/mL in the assay with S. aureus 42080 (MRSA) (setting [5]), 4 µg/mL in the assay on S. aureus SPO-19 (MRSA) (compound alone) and 0.5 µg/mL with S. aureus SPO-19 (MRSA) (setting [5]). In addition, the minimum inhibitory concentration (MIC) in the assay with S. pneumoniae 907 was below 0.1 µg/mL; in the assay with E. faecalis 6, 0.25 µg/mL; against S. aureus 6538 (MSSA), below 0.1 µg/mL; against S. aureus 270A (MRSA), 1 µg/mL.
